In ChEMBL document CHEMBL1201862, “PubChem BioAssay data set” (2004):
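Grown in 96-well plates, cells were treated for 48 hours with each compound at five concentrations. Insufficient inhibition: endpoint recorded as highest concentration tested. GI50 is the concentration that inhibits growth by half.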 The source made the active and inactive calls. Cut-off read from the data, not from the text of the source: active = GI50 up to about 1.1 µM and inactive = higher.

Experiments:
Test in all cases: growth of human tumour cells (NCI), 48 h
[1] = tested on: A498
[2] = tested on: CAKI-1
[3] = tested on: DLD-1
[4] = tested on: HOP-62
[5] = tested on: NCI-H226
[6] = tested on: OVCAR-8
[7] = tested on: SF-268
[8] = tested on: SF-539
[9] = tested on: SK-MEL-2
[10] = tested on: SNB-75
[11] = tested on: U-251
[12] = tested on: UACC-257
[13] = tested on: MOLT-4
[14] = tested on: SK-OV-3
[15] = tested on: MCF7
[16] = tested on: MDA-MB-231
[17] = tested on: MDA-MB-435
[18] = tested on: MDA-N
[19] = tested on: NCI-H522
[20] = tested on: SR

| Compound | GI50 [1] | GI50 [2] | GI50 [3] | GI50 [4] | GI50 [5] | GI50 [6] | GI50 [7] | GI50 [8] | GI50 [9] | GI50 [10] | GI50 [11] | GI50 [12] | GI50 [13] | GI50 [14] | GI50 [15] | GI50 [16] | GI50 [17] | GI50 [18] | GI50 [19] | GI50 [20] |
| --- | --- | --- | --- | --- | --- | --- | --- | --- | --- | --- | --- | --- | --- | --- | --- | --- | --- | --- | --- | --- |
| CCC1CN2CCc3cc(OC)c(OC)cc3C2CC1CC1c2cc(OC)c(OC)cc2CCN1C(=O)C1CCCN1C(=O)OCc1ccccc1 (configuration not stated) | 16.3 µM (inactive) | 20.3 µM (inactive) | 15.6 µM (inactive) | 16.2 µM (inactive) | 16.1 µM (inactive) | 17.1 µM (inactive) | 17.1 µM (inactive) | 18.7 µM (inactive) | 17.2 µM (inactive) | 14.4 µM (inactive) | 15 µM (inactive) | 16.9 µM (inactive) |  |  |  |  |  |  |  |  |
| CC(C)C1CC2C(=O)N(c3ccccc3)C(=O)C2c2[nH]c3ccccc3c21 (configuration not stated) | 32 µM (inactive) | 5.68 µM (inactive) | 42.5 µM (inactive) | 29.2 µM (inactive) | 16.2 µM (inactive) | 7.24 µM (inactive) |  | 13.8 µM (inactive) | 35.2 µM (inactive) | 6.98 µM (inactive) | 12 µM (inactive) | 34.6 µM (inactive) | 11.2 µM (inactive) | 20.5 µM (inactive) |  |  |  |  |  |  |
| C[N+](C)(C)C(Cc1c[nH]c(=S)[nH]1)C(=O)O (configuration not stated) | > 100 µM (inactive) | > 100 µM (inactive) |  | > 100 µM (inactive) | > 100 µM (inactive) | > 100 µM (inactive) | > 100 µM (inactive) | > 100 µM (inactive) | > 100 µM (inactive) | > 100 µM (inactive) | > 100 µM (inactive) | > 100 µM (inactive) | > 100 µM (inactive) | > 100 µM (inactive) | > 100 µM (inactive) | > 100 µM (inactive) | > 100 µM (inactive) | > 100 µM (inactive) | > 100 µM (inactive) | > 100 µM (inactive) |
| COc1cccc(CCN2CCN(CCCc3ccccc3)CC2)c1 | 61 µM (inactive) | 67.3 µM (inactive) |  | 79.1 µM (inactive) | 71 µM (inactive) | > 100 µM (inactive) | > 100 µM (inactive) | > 100 µM (inactive) | > 100 µM (inactive) | 63.1 µM (inactive) | > 100 µM (inactive) | > 100 µM (inactive) | 92.3 µM (inactive) | 88.1 µM (inactive) | 44.1 µM (inactive) | > 100 µM (inactive) | 85.9 µM (inactive) | > 100 µM (inactive) | 22.6 µM (inactive) | 30.5 µM (inactive) |
| Cc1c2oc3c(C)cc(F)c(C(=O)NC4C(=O)NC(C(C)C)C(=O)N5CCCC5C(=O)N(C)CC(=O)N(C)C(C(C)C)C(=O)OC4C)c3nc-2c(C(=O)NC2C(=O)NC(C(C)C)C(=O)N3CCCC3C(=O)N(C)CC(=O)N(C)C(C(C)C)C(=O)OC2C)c(N)c1=O (configuration not stated) | 0.161 µM (active) | 2.45 µM (inactive) |  | 0.107 µM (active) | 0.0234 µM (active) | 0.221 µM (active) | < 0.001 µM (active) | 0.0681 µM (active) | 0.01 µM (active) | 0.163 µM (active) | 0.00588 µM (active) | 0.00395 µM (active) | < 0.001 µM (active) | 0.16 µM (active) | < 0.001 µM (active) | 0.647 µM (active) | 0.00757 µM (active) | 0.0024 µM (active) | 0.00188 µM (active) | < 0.001 µM (active) |
| COC(=O)C(CCC(=O)CCl)N1C(=O)c2ccccc2C1=O (configuration not stated) | 19.5 µM (inactive) | 15.2 µM (inactive) |  | 16.1 µM (inactive) | 18.7 µM (inactive) | 12.3 µM (inactive) | 9.42 µM (inactive) | 12.2 µM (inactive) | 6.9 µM (inactive) | 8.13 µM (inactive) | 14.4 µM (inactive) | 7.18 µM (inactive) | 2.38 µM (inactive) | 16 µM (inactive) | 4.57 µM (inactive) | 12.6 µM (inactive) | 10.1 µM (inactive) | 7.43 µM (inactive) | 1.73 µM (inactive) | 3.39 µM (inactive) |
| O=C(CSc1nc2ccc(I)cc2c(=O)n1Cc1ccccc1)NN1C(=O)c2ccccc2C1=O | 14.8 µM (inactive) | 9.23 µM (inactive) |  | 4.75 µM (inactive) | 6.3 µM (inactive) | 11.8 µM (inactive) | 8.85 µM (inactive) | 3.42 µM (inactive) | 10.8 µM (inactive) | 4.3 µM (inactive) | 12.7 µM (inactive) | 17.5 µM (inactive) | 28.4 µM (inactive) | 11.6 µM (inactive) | 23.3 µM (inactive) | 11.2 µM (inactive) | 34.4 µM (inactive) | 37.3 µM (inactive) | 14.9 µM (inactive) | 25.7 µM (inactive) |
| NC(=O)c1ncn(C2OC(CO)C(O)C2O)c1NC=O (configuration not stated) | > 100 µM (inactive) | > 100 µM (inactive) |  | > 100 µM (inactive) | > 100 µM (inactive) | > 100 µM (inactive) | > 100 µM (inactive) | > 100 µM (inactive) | > 100 µM (inactive) | > 100 µM (inactive) | > 100 µM (inactive) | > 100 µM (inactive) | > 100 µM (inactive) | > 100 µM (inactive) | > 100 µM (inactive) | > 100 µM (inactive) | > 100 µM (inactive) | > 100 µM (inactive) | > 100 µM (inactive) | > 100 µM (inactive) |
| O=C1Nc2ccccc2/C1=N/NC(=S)NCc1ccccn1 | 2.25 µM (inactive) | 0.0951 µM (active) |  | 0.483 µM (active) | 0.604 µM (active) | 0.346 µM (active) | 0.136 µM (active) | 0.366 µM (active) | 2.9 µM (inactive) | 0.454 µM (active) | 0.0724 µM (active) | 0.47 µM (active) | < 0.01 µM (active) | 1.12 µM (inactive) | < 0.01 µM (active) | 0.0721 µM (active) | 0.931 µM (active) | 0.975 µM (active) | 0.17 µM (active) | < 0.01 µM (active) |
| Cc1ccc2c(c1)C(=O)c1ccc(C)nc1C2=O | > 100 µM (inactive) | 41.7 µM (inactive) |  | 37.8 µM (inactive) | > 100 µM (inactive) | 46.9 µM (inactive) | 34.9 µM (inactive) | 23 µM (inactive) | 69.2 µM (inactive) | 42.4 µM (inactive) | 32.4 µM (inactive) | 24 µM (inactive) | > 100 µM (inactive) | > 100 µM (inactive) | 27.4 µM (inactive) | 3.98 µM (inactive) | 19.3 µM (inactive) | 16.6 µM (inactive) | 25.9 µM (inactive) | 34.1 µM (inactive) |
| CCOC(=O)c1nc2ccccc2nc1NCc1ccc(Cl)cc1Cl | > 100 µM (inactive) | > 100 µM (inactive) |  | > 100 µM (inactive) | > 100 µM (inactive) | > 100 µM (inactive) | > 100 µM (inactive) | > 100 µM (inactive) | > 100 µM (inactive) | 23.6 µM (inactive) | > 100 µM (inactive) | > 100 µM (inactive) | > 100 µM (inactive) | > 100 µM (inactive) | > 100 µM (inactive) | > 100 µM (inactive) | 97.9 µM (inactive) | 96.8 µM (inactive) | > 100 µM (inactive) | 60.7 µM (inactive) |
| COc1ccc2c(c1)CC[C@@H]1[C@@H]2CC[C@]2(C)C(=O)/C(=C/c3ccncc3)C[C@@H]12 | 27.3 µM (inactive) | 46.5 µM (inactive) |  | 19.9 µM (inactive) | 63 µM (inactive) | 51.6 µM (inactive) | 36.1 µM (inactive) | 25.5 µM (inactive) | 22.5 µM (inactive) | 32.1 µM (inactive) | 54.3 µM (inactive) | 29.3 µM (inactive) | > 100 µM (inactive) | 32.9 µM (inactive) | 61.4 µM (inactive) | 64.7 µM (inactive) | 30.4 µM (inactive) | 42.6 µM (inactive) | 30.4 µM (inactive) | 47.2 µM (inactive) |
| COc1ccc2c(c1C)C(=O)C(O)(CC=C(C)C)O2 (configuration not stated) | > 100 µM (inactive) | > 100 µM (inactive) |  | > 100 µM (inactive) | > 100 µM (inactive) | > 100 µM (inactive) | > 100 µM (inactive) | > 100 µM (inactive) | > 100 µM (inactive) | > 100 µM (inactive) | > 100 µM (inactive) | > 100 µM (inactive) | > 100 µM (inactive) | > 100 µM (inactive) | > 100 µM (inactive) | > 100 µM (inactive) | > 100 µM (inactive) | > 100 µM (inactive) | > 100 µM (inactive) | > 100 µM (inactive) |
| Cc1ccnc2c1c(=O)c1ccccc1n2C | 31.8 µM (inactive) | 22.1 µM (inactive) |  | 40.7 µM (inactive) | 44.7 µM (inactive) | 34.4 µM (inactive) | 28 µM (inactive) | 29.9 µM (inactive) | 52.1 µM (inactive) | 17.6 µM (inactive) | 39.8 µM (inactive) | 37.1 µM (inactive) | 23.9 µM (inactive) | 35.2 µM (inactive) | 32.9 µM (inactive) | 31.8 µM (inactive) | 42.9 µM (inactive) | 34.3 µM (inactive) | 19.1 µM (inactive) | 44.9 µM (inactive) |
| Cc1cc(CN(Cc2ccccc2)Cc2nc3ccccc3[nH]2)c(O)c(CN(Cc2nc3ccccc3[nH]2)Cc2nc3ccccc3[nH]2)c1 | 10.2 µM (inactive) | 8.69 µM (inactive) |  | 5.26 µM (inactive) | 3.42 µM (inactive) | 4.18 µM (inactive) | 8.11 µM (inactive) | 2.92 µM (inactive) | 10.8 µM (inactive) | 8.91 µM (inactive) | 13 µM (inactive) | 4.86 µM (inactive) | 4.26 µM (inactive) | 5.55 µM (inactive) | 2.66 µM (inactive) | 12.4 µM (inactive) | 7.52 µM (inactive) | 6.43 µM (inactive) | 16.2 µM (inactive) | 2.6 µM (inactive) |
